One data set concerns the target T1, cyclooxygenase 2 (COX2) (Homo sapiens, UniProt P35354).
T1 construct: purchased Eurofins Pharma Discovery Services
T1 sequence (P35354 18-604): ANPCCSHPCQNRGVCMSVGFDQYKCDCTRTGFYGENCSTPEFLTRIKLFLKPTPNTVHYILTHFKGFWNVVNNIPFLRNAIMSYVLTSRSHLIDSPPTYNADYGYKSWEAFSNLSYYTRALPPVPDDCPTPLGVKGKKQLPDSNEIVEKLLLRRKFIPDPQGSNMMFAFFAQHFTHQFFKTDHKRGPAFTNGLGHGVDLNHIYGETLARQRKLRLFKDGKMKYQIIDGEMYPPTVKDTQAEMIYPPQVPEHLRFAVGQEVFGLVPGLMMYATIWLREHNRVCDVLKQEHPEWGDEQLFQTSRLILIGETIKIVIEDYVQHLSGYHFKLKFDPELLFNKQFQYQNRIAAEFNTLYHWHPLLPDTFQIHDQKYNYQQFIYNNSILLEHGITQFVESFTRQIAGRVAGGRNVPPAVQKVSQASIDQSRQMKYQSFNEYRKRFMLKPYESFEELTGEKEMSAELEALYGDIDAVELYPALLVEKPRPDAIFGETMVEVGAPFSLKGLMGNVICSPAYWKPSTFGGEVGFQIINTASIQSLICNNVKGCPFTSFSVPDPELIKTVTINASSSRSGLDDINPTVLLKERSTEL
Kind of data set: Secondary pharmacology panel (Eurofins). Type of data set: biochemical.

The next data set concerns the target T2, HDAC10 (Homo sapiens, UniProt Q969S8).
T2 construct: purchased Eurofins Pharma Discovery Services 2662
T2 sequence (Q969S8 1-669): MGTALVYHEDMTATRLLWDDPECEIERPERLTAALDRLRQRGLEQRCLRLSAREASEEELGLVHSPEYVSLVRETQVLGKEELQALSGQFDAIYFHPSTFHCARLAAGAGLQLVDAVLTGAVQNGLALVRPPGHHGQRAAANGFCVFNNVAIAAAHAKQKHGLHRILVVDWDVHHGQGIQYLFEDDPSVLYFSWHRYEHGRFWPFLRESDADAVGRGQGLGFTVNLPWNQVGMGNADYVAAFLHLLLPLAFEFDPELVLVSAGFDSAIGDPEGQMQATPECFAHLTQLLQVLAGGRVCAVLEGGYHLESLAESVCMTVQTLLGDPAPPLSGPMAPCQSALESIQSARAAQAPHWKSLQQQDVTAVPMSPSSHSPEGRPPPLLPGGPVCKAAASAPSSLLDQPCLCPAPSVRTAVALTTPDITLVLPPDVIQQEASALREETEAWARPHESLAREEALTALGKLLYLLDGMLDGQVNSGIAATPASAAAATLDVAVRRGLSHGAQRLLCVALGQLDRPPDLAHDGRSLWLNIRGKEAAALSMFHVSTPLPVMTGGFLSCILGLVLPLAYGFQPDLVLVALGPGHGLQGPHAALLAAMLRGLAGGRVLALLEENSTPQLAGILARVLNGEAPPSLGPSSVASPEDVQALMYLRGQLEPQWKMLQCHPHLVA
Kind of data set: HDAC enzymatic activity (Eurofins). It is filed as biochemical. Conditions: Class IIB; ACY-1083 mean of two separate measurements, Ricolinostat and Tubastatin A one measurement.

Data set [1] deals with T3, dopamine active transporter (DAT) (Homo sapiens, UniProt Q01959).
T3 construct: purchased Eurofins Pharma Discovery Services
As to the kind of experiment: Secondary pharmacology panel (Eurofins). Type of data set: binding.
Experimental: (§1) Second pharmacology screening was performed at Eurofins Pharma Discovery Services in a panel of 190 in vitro radioligand binding and enzyme assays covering a diverse set of enzymes, receptors, ion channels, and transporters.

The test system of data set [2] is healthy HBEC at ALI cultures. Kind of data set: Ciliary beat frequency. The settings on record: TNF-challenged healthy HBEC. Type of data set: cell-based, human. How it is done:
For cilia beating frequency (CBF) and cell velocity measurements, donor cells of primary healthy HBECs were amplified on rat tail collagen I coated flasks and seeded on 12-mm-diameter Transwell inserts.
CBF was quantified for the differentiated healthy HBECs treated with vehicle, TNF, and TNF + ACY-1083. The plates containing the pseudostratified epithelia were incubated at 37 °C with 5% CO2 in the 3i Marianis/Yokogawa Spinning-Disk Confocal microscope (Leica Microsystems, Sugar land, USA) as reported in our previous publications. High-speed time-lapse videos were taken at 32X air at 100 Hz with a total of 250 frames using a scientific Hamamatsu C11440-42U30 CMOS camera (Bridgewater, USA). Five areas were imaged per insert. A Matlab (R2020a) script (validated against SAVA) (previously described in [58] was used to determine average CBF per video, to generate a heat map indicating CBF.

The subject of data set [3] is COPD HBEC ALI cultures. Kind of data set: TGF-β1 challenge in ALI, FITC-dextran permeability. Type of data set: cell-based, human. Conditions: 10 μM pre-treatment 3 days, TGF-β 0.4, 2 and 10 ng/ml for 48 hours, two COPD donors. How it is done:
The paracellular permeability was determined by using fluorescein isothiocyanate labeled 4kD-dextran (Sigma-Aldrich, St. Louis, USA). 18 hours after addition of 0.2 mg FITC-dextran in 200 μL medium to the apical side of the ALI cultures, the fluorescence in the basolateral medium was measured using PHERAstar FSX (excitation 485 nm and emission 520 nm) (BMG LABTECH, Ortenberg, Germany). The time point was chosen for optimal window in the assays as well as practical reasons and has been kept consistent in between different stimulations throughout this work. Data was plotted as fold-change of 0.1% DMSO control.
Permeability was measured after 48 hours.

Data set [4] concerns COPD HBEC ALI cultures. Kind of data set: RNA analysis (qPCR), TNF challenge. Type of data set: cell-based, human. As to the method:
TEER and permeability were measured after seven days.
To study transcriptional changes, RNA purification was carried out using the RNeasy Plus 96 kit (74192) (Qiagen, Venlo, The Netherlands) according to manufacturer’s protocol. The liquid was collected and frozen at –80°C until further analysis. RNA was quantified and cDNA synthesis was performed according to standard procedures using High-capacity cDNA Reverse Transcription Kit (4368813) (ThermoFisher, Waltham, MA, US). Real-time polymerase chain reaction (qPCR) was done using validated TaqMan® Gene Expression Assays (ThermoFisher, Waltham, MA, US), IL8 (Hs00174103_m1), CCL2 (Hs00234140_m1), CXCL10 (Hs00171042_m1), MMP9 (Hs00957562_m1), IL1B (Hs01555410_m1), MUC5AC (Hs01365616_m1), MUC5B (Hs00861595_m1) with TaqMan Fast Advanced Master Mix (4444557) (Applied Biosystems, Foster City, CA, US). Samples were run in triplicates and analyzed on the QuantStudio^TM 7 Flex Real-Time PCR 384-well System (ThermoFisher Waltham, MA, US). Data was normalized to the housekeeping genes GAPDH (Hs99999905_m1), and RPLP0 (Hs99999902_m1) and delta-delta CT values were plotted (fold change to DMSO).
In general terms: Real-time PCR tracks product formation cycle by cycle.

Where [5] appears, read: high concentrations of TNF, 8 days.
Where [6] appears, read: unchallenged cells and 5 ng/ml TNF.

As usually defined, the IC50 is the concentration that inhibits the measured activity by half. Low readings indicate inhibition by little substance, high ones a need for much substance.

T3 sequence (Q01959 whole entry, species assumed): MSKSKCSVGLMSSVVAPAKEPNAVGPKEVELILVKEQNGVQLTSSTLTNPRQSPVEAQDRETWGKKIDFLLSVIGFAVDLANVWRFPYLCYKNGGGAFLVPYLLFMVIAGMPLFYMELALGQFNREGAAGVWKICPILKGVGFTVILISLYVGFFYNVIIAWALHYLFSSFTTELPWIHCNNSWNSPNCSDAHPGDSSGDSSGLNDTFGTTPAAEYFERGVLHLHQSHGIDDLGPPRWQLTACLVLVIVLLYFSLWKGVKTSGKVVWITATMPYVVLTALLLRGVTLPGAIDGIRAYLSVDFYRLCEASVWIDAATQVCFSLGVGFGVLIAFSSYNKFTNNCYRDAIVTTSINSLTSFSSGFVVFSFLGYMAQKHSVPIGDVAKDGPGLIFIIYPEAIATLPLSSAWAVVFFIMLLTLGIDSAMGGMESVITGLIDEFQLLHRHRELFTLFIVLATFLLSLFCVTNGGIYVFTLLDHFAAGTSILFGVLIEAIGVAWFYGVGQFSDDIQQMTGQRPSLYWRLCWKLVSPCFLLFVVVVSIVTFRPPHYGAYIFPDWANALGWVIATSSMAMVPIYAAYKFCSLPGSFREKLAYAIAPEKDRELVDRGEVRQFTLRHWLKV
Experimental for cyclooxygenase 2 (COX2): as §1

ACY-1083: the 50% inhibitory concentration (IC50) against cyclooxygenase 2 (COX2) came to 6.48 µM. The substance also displayed an IC50 on HDAC10 of 18.5 µM. In data set [1], this substance showed an IC50 of 0.37 µM. In addition, in data set [2], the CBF result is given as “no effect”. Moreover, the “paracellular permeability after TGF-β challenge” value with COPD HBEC ALI cultures [3] is given as “decreased it at all concentrations”. In the data set with COPD HBEC ALI cultures [4] (setting [5]), the CXCL10 transcripts entry is given as “significantly reduced”, the IL1B transcripts result is given as “significantly reduced”, the IL6 transcripts result is “significantly reduced” and the MMP9 transcripts result is “significantly reduced”. Further, in the data set on COPD HBEC ALI cultures [4] (higher concentrations of TNF), the “MUC5AC mRNA” value is listed as “no significant effect” and the “MUC5B mRNA” value was “no significant effect”. Moreover, in the data set with COPD HBEC ALI cultures [4] (setting [6]), the “MUC5AC mRNA” value is on record as “reduced baseline production” and the “MUC5B mRNA” value is on record as “reduced baseline production”.

The values are drawn from publication PMC9555642 (PLoS ONE, 2022).
